Reference: article PMC12027278, “Study of Lysozyme Activity in Bird Egg Whites by Fluorescence Polarization Assay Using Chitooligosaccharide Tracer” (Foods, 2025)

How the values were obtained:
[1] = molecular target: T1, hen egg white lysozyme (HEWL); hen egg lysozyme (Sigma) (Gallus gallus, UniProt P00698); assay: fluorescence polarization; assay type: biochemical; conditions: 25 mM phosphate, 0.15 M NaCl, pH 7.4, 25 °C; tracer 3 nM, HEWL 100 µg/mL, added after pre-incubation with non-reactive egg whites; labelled compound
T1 construct: gene LYZ; native mature enzyme, 129 residues, commercial (Sigma) for tracer 2; endogenous in diluted egg white for tracer 1
T1 sequence (P00698 19-147): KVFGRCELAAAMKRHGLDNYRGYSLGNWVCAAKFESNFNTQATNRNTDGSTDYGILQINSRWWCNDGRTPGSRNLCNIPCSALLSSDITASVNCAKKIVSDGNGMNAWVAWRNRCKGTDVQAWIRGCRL

[2] = molecular target: T1, hen egg white lysozyme (HEWL); hen egg lysozyme (Sigma); assay: fluorescence polarization, egg white; assay type: biochemical; conditions: 25 mM phosphate, 0.15 M NaCl, pH 7.4, 25 °C; tracer 3 nM; diluted egg white; labelled compound

| SMILES | fluorescence polarization [1] | fluorescence polarization, egg white [2] |
| --- | --- | --- |
| CC(=O)N[C@H]1[C@H](OCCNC(=S)Nc2ccc3c(c2)C(=O)OC32c3ccc(O)cc3Oc3cc(O)ccc32)O[C@H](CO)[C@@H](O[C@@H]2O[C@H](CO)[C@@H](O[C@@H]3O[C@H](CO)[C@@H](O[C@@H]4O[C@H](CO)[C@@H](O[C@@H]5O[C@H](CO)[C@@H](O)[C@H](O)[C@H]5NC(C)=O)[C@H](O)[C@H]4NC(C)=O)[C@H](O)[C@H]3NC(C)=O)[C@H](O)[C@H]2NC(C)=O)[C@@H]1O [compound 2, tracer 2] | A sharp increase in the FP signal followed by a decrease over time was observed |  |
| CC(=O)N[C@H]1[C@H](OCCNC(=S)Nc2ccc3c(c2)C(=O)OC32c3ccc(O)cc3Oc3cc(O)ccc32)O[C@H](CO)[C@@H](O[C@@H]2O[C@H](CO)[C@@H](O[C@@H]3O[C@H](CO)[C@@H](O)[C@H](O)[C@H]3NC(C)=O)[C@H](O)[C@H]2NC(C)=O)[C@@H]1O [compound 1, tracer 1] |  | a rapid increase in the FP signal was observed, followed by a stable plateau (Figure 6b) |
